Source: US8975298B2, “Therapeutic agent for pain” (ONO Pharmaceutical Co., Ltd., priority 2005, dated 2015)
Several values for one entry are separate records, joined by “and”; a condition that tells them apart may be missing. Identical values can stand only once.

Experiments:
[1] = tested on: spinal nerve ligation model rats; experiment: Latent time of pain response to heat stimulus (heat hyperalgesia) in rat spinal nerve ligation model; format: in vivo
Procedure: (§1) Male rats were used in the experiment. Spinal nerve ligation models were made in accordance with the method of Kim & Chung (Kim, S. H. & Chung, J. M., An experimental model for peripheral neuropathy produced by segmental spinal nerve ligation in the rat, Pain, 50, 355-363, 1992). Namely, the fifth lumber nerve in one side was strongly ligated with silken threads.
(§2) More specifically, the models were made in the following manner.
(§3) After intraperitoneally administering 40 mg/kg (liquid volume 0.8 ml/kg) of pentobarbital (Nenbutal Injection (trade name), Dainippon Pharmaceutical Co., Ltd.), a rat was fixed in the dorsal position under anesthesia and the abdomen was incised in the median line with scissors. The intestines and the like were pushed aside with sterilized gauze and the abdominal aorta and the abdominal vein were confirmed. Then, the muscle located immediately below the iliolumbar vein was cleaved with tweezers. After confirming the fourth lumber nerve and the fifth lumber nerve in the muscle, the fifth lumber nerve (L5) was ligated with 6-0 silken threads. Subsequently, the intestines having been pushed away were returned to the original positions. 5 ml of physiological saline (otsuka Pharmaceutical Factory, Inc.) containing ampicillin sodium (Viccillin for Injection (trade name), Meiji Seika Kaisha, Ltd.) (ampicillin concentration: 20 mg/ml) was poured into the peritoneal cavity, and the abdominal muscles and skin were sutured with a nylon thread.
From immediately after the spinal nerve ligation, 30 mg/kg of (2R)-2-propyloctanoic acid was orally administered once a day for 14 days (14 times in total). Also, vehicle control was administered in the same manner. […]
On the next day of the final administration, the latent time of heat stimulus was measured. Namely, right and left footpads were irradiated with infrared light of a halogen lamp from the lower side, and the time until the occurrence of an escape response (the latent time of pain reaction: sec) was measured.

[2] = tested on: dogs; conditions: dog, in vivo, iv, 100 mg/kg
Excerpt: Since the toxicity of (2R)-2-propyloctanoic acid, a salt thereof or a prodrug thereof is extremely low, it can be considered to be sufficiently safe for medicinal uses.

[3] = tested on: spinal nerve ligation model rats; experiment: Escape threshold of contact stimulus, von Frey filaments (contact allodynia) in rat spinal nerve ligation model; format: in vivo
Procedure: as §1, §2, §3
From immediately after the spinal nerve ligation, 30 mg/kg of (2R)-2-propyloctanoic acid was orally administered once a day for 14 days (14 times in total). Also, vehicle control was administered in the same manner.
(3-2) Measurement of Escape Threshold of Contact Stimulus (Evaluation of Contact Allodynia)
On the next day of the final administration, the escape threshold of a contact stimulus was measured. Namely, filaments (von Frey filaments: VFF) were pressed against right and left footpads from the lower side. Then, the VFF indication at the occurrence of an escape response was recorded and converted into weight (g).

[4] = 30 mg/kg orally once a day for 14 days from immediately after L5 ligation, measured next day after final administration, injured (operated-on) side
[5] = 30 mg/kg orally once a day for 14 days from immediately after L5 ligation, measured next day after final administration, normal (opposite) side
[6] = 30 mg/kg orally, 14 days, injured side vs vehicle control, p<0.01 Welch test

CCCCCC[C@@H](CCC)C(=O)O [(2R)-2-propyloctanoic acid]
Latent time of pain response (sec) Injured side [1, 4]: 13.61 s and 13.61 ± 6.76 s | Latent time of pain response (sec) Normal side [1, 5]: 19.00 s and 19.00 ± 5.58 s | Analgesic effect on heat hyperalgesia [1, 6]: an analgesic effect on heat hyperalgesia was confirmed | Fatal cases [2]: no fatal case was observed | Escape threshold of contact stimulus (g) Injured side [3, 4]: 14.7 g and 14.7 ± 12.7 g | Escape threshold of contact stimulus (g) Normal side [3, 5]: 66.1 g and 66.1 ± 29.8 g | Analgesic effect on contact allodynia [3, 6]: an analgesic effect on contact allodynia was confirmed
